Data as given in patent publication US20040043442A1, “Use of betaine in functional products having blood pressure lowering effects” (Finnfeeds Finland Oy, priority 2001, published 2004).

Key:
Format in all cases: in vivo, human
[1] = tested on: healthy, obese adults with normal blood pressure; assay: Tolerability of the daily betaine dose in the intervention study; settings: 6 g daily dose, 12 weeks
Text: (§1) The effects of betaine supplementation on blood pressure, and in addition on body weight, body composition, resting energy expenditure, and concentrations of serum total and lipoprotein lipids and plasma homocysteine in humans, were studied. The participants were healthy, obese adults with normal blood pressure.
(§2) Forty-two subjects (14 males, 28 females) without any chronic disease and with normal liver, kidney and thyroid function participated in the study. The inclusion criteria for body mass index (BMI) was 28-40 kg/m^2 and for age 25-60 years. Serum concentration of total triglycerides had to be <3.5 mmol/l and that of total cholesterol <7.5 mmol/l. Inclusion criteria for fasting concentration of plasma glucose was <6.7 mmol/l. Subjects with lipid lowering medication were excluded as well women with perimenopause. Four women were postmenopausal in the control group and 6 were postmenopausal in the betaine group. None of the participants were on a medication for hypertension.
The study was a controlled, randomized double-blinded parallel study. […] Grapefruit juice was added to simulate the bitter taste of betaine. The subjects were on their regular eucaloric diet during this period. For the intervention period with a hypocaloric (−2100 kJ or −500 kcal) diet the subjects were randomly assigned in two groups (20 for the control group, 22 for the betaine group). […]

[2] = tested on: healthy, obese adults with normal blood pressure; assay: Effect of betaine on blood pressure, controlled randomized double-blinded 12-week intervention study
Text: as §1, §2
(§3) The study was a controlled, randomized double-blinded parallel study. […] Grapefruit juice was added to simulate the bitter taste of betaine. The subjects were on their regular eucaloric diet during this period. For the intervention period with a hypocaloric (−2100 kJ or −500 kcal) diet the subjects were randomly assigned in two groups (20 for the control group, 22 for the betaine group). The subjects were matched for BMI, gender and menstrual cycle.
(§4) The control group consumed orange juice 1 dl twice a day and the betaine group consumed betaine enriched orange juice 1 dl twice a day. The amount of betaine was 3 g per 1 dl orange juice, giving a daily betaine dose of 6 g.
The data were analyzed with the SPSS/PC+ statistics program (V8.0, SPSS; Chicago, Ill.). Before further analyses, normal distribution of the variables was checked with the Kolmogorov-Smimov test with Lilliefors significance correction. Variables with abnormal distribution (TG) were logarithmized and the logarithmized values were used in further analyses. GLM for repeated measures was used to test the changes within time. In cases the result of this analysis was significant paired t-test was used for two-tailed comparisons within the groups. Student's t-test was used for between-group comparisons. […] All data are expressed as mean±SD.
Blood pressure was measured from the right arm after five minutes of rest in sitting position using a zero mercury sphygmomanometer. Two measurements were performed and the mean of them was calculated and used for further analyses.

homocysteine = assay: Total homocysteine by HPLC in the intervention study
Text: as §1, §2, §3, §4
Plasma total homocysteine was determined by a modification of the highpressure liquid chromatographic method described by Ubbink et al. (Ubbink, J. B., Vermaak, W. J. H., Bissbort, S. Rapid high-performance liquid chromatographic assay for total homocysteine levels in human serum. J Chromatogr (1991) 565:441446). The modified mobile phase consisted of 0.37 mol/l acetate and 0.5% methanol, pH 4.15.

[3] = Betaine absorption and excretion: blood, serum and urine levels after administration
Method: There was, however, no clear correlation between blood and urine betaine levels. After administration of 1, 3 or 6 g betaine an amount of about 3, 5 and 7%, respectively, was recovered as betaine and dimethylglycine (DMG) in 24 h urine. After loading betaine 100 mg/kg, peak serum concentrations were found 1-2 h after loading; the concentrations varying a lot with indiviudual (148-258 μmol/l).

[4] = 4 wk (beginning of intervention period), betaine group, mean ± SD

## C[N+](C)(C)CC(=O)[O-] [Betaine, trimethylglycine]
[1]
  Side effects: no side effects were observed
  Tolerability: well tolerated
[2]; [4]
  Diastolic blood pressure: 85.4 ± 7.9 mmHg
  Systolic blood pressure: 122.5 ± 9.5 mmHg
[2]; 12-week intervention, betaine 6 g daily, mean ± SD, P=0.219 vs control group
  Change in diastolic blood pressure during the intervention period: −4.9 ± 6.6 mmHg
[2]; 12-week intervention, betaine 6 g daily, mean ± SD, P=0.740 vs control group
  Change in systolic blood pressure during the intervention period: −1.4 ± 8.0 mmHg
[2]; 16 wk (end of intervention period), betaine 6 g daily in orange juice, mean ± SD, P=0.002 vs 4 wk
  Diastolic blood pressure: 80.5 ± 7.1 mmHg
[2]; 16 wk (end of intervention period), betaine 6 g daily in orange juice, mean ± SD, P=0.432 vs 4 wk
  Systolic blood pressure: 121.1 ± 9.4 mmHg
[2]; betaine group, normotensive subjects, 4 wk vs 16 wk
  Diastolic blood pressure (result in words): decreased significantly
homocysteine; 4 wk (beginning of intervention), betaine group, mean ± SD
  Serum homocysteine concentration: 8.76 ± 1.63 µmol/L
homocysteine; 16 wk (end of intervention), betaine 6 g daily, P=0.025 vs 4 wk
  Serum homocysteine concentration: 7.93 ± 1.52 µmol/L
homocysteine; betaine 6 g daily, P=0.030 vs control group
  Change in serum homocysteine concentration during the intervention period: -0.83 ± 0.34 µmol/L
[3]; loading betaine 100 mg/kg
  Time of peak serum concentrations after loading: 1 to 2 h
[3]; loading betaine 100 mg/kg, varying with individual
  Peak serum concentrations: 148 to 258 µmol/L
[3]; persons given betaine in the study
  Betaine in blood and urine of persons given betaine (result in words): Significantly increased amounts
